Test results as given in ChEMBL document CHEMBL1127280, “Imidazolidinones and pyrazolones as novel ACAT inhibitors: Chemistry and biological activity” (Bioorg Med Chem Lett, 1994).

Key:
[1] = target: O-acyltransferase (Oryctolagus cuniculus, UniProt G1SFD9); assay: In vitro Acyl coenzyme A:cholesterol acyltransferase inhibition by incubation with [14C]oleolyl-CoA and intestinal microsomes isolated from cholesterol-fed rabbits.; set-up: species or system Intestine
[2] = species: Rattus norvegicus; assay: Cholesterol lowering activity was assessed in rats expressed as percent change in total cholesterol (TC) in cholic acid-cholesterol-peanut oil fed rats; format: functional

Chain of O-acyltransferase (G1SFD9 1-524): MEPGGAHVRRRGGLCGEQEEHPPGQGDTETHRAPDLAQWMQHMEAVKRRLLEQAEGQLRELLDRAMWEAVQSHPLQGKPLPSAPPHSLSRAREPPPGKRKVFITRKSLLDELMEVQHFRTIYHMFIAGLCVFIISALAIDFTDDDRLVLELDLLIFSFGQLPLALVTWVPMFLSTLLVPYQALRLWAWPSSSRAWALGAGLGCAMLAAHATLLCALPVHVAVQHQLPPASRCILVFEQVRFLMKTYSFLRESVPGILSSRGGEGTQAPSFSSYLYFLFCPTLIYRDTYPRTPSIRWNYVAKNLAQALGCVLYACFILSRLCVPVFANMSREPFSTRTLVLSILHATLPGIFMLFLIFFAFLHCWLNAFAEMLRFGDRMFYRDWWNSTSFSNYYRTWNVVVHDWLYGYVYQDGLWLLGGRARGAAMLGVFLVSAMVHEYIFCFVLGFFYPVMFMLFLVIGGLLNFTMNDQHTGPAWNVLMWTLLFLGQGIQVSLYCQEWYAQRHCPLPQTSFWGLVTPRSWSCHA

| Compound | IC50 [1] | Change in TC [2] |
| --- | --- | --- |
| Cc1cccc(C)c1N1N=C(CC(c2ccccc2)c2ccccc2)CC1=O | 50.8 µM |  |
| CCCCCCCC/C=C\CCCCCCCC1=NN(c2c(Cl)cccc2Cl)C(=O)C1 | 22.9 µM | -18% |
| CCCCCCCC/C=C\CCCCCCCC1=NN(c2ccc(Cl)cc2Cl)C(=O)C1 | 9.9 µM |  |
| CCCCCCCCCCC1=NN(c2c(C)cccc2C)C(=O)C1 | 5 µM |  |
| CC(C)c1cccc(C(C)C)c1N1CN(CC(c2ccccc2)c2ccccc2)CC1=O | 5 µM | -6% |
| CCCCCCCC/C=C\CCCCCCCC1=NN(c2ccc(F)cc2F)C(=O)C1 | 5 µM |  |
| CC(C)c1cccc(C(C)C)c1N1CNC(Cc2ccccc2)C1=O (stereo unspecified) | 5.5 µM | -9% |
| CC(C)c1cccc(C(C)C)c1N1CN(C(c2ccccc2)c2ccccc2)CC1=O | 1.3 µM |  |
| CCCCCCCC/C=C\CCCCCCCC1=NN(c2ccc(C)cc2C)C(=O)C1 | 5 µM | -26% |
| CC(C)c1cccc(C(C)C)c1N1CNC(C(c2ccccc2)c2ccccc2)C1=O (stereo unspecified) | 3.9 µM |  |
| CCCCCCCC/C=C\CCCCCCCC1=NN(c2ccc([N+](=O)[O-])cc2[N+](=O)[O-])C(=O)C1 | 5 µM | -26% |
